This is an account of results in ChEMBL document CHEMBL4834400 (J Med Chem, 2021).

Data set [1] can be described thus: Drug concentration in Wistar Han rat brain at 100 mg/kg, po measured at 2 hrs by HPLC-MS/MS.
Data set [2] in a line: Ratio of drug concentration in brain to plasma in Wistar Han rat at 100 mg/kg, po measured at 6 hrs by HPLC-MS/MS.
Data set [3] is described as follows: Drug concentration in Wistar Han rat plasma at 100 mg/kg, po measured at 0.37 hrs by HPLC-MS/MS.
Data set [4] can be described thus: Drug concentration in Wistar Han rat brain at 100 mg/kg, po measured at 0.37 hrs by HPLC-MS/MS.
Data set [5] in a line: Drug concentration in Wistar Han rat plasma at 100 mg/kg, po measured at 6 hrs by HPLC-MS/MS.
The nature of data set [6]: Drug concentration in Wistar Han rat brain at 100 mg/kg, po measured at 6 hrs by HPLC-MS/MS.
Data set [7] can be described thus: Drug concentration in Wistar Han rat plasma at 100 mg/kg, po measured at 2 hrs by HPLC-MS/MS.
The nature of data set [8]: Ratio of drug concentration in brain to plasma in Wistar Han rat at 100 mg/kg, po measured at 0.37 hrs by HPLC-MS/MS.
Data set [9] can be described thus: Ratio of drug concentration in brain to plasma in Wistar Han rat at 100 mg/kg, po measured at 2 hrs by HPLC-MS/MS.
A short description of data set [10]: in vivo. The conditions noted are these: Sprague-Dawley, rat, plasma, po, 10 mg/kg.
Data set [11] can be described thus: Drug concentration in Sprague-Dawley rat at 5 mg/kg, iv measured at 0 hrs. The conditions noted are these: in vivo.
Data set [12] can be described thus: Half life in Sprague-Dawley rat at 10 mg/kg, po. The conditions noted are these: in vivo.
Data set [13] in a line: Volume of distribution at steady state in Sprague-Dawley rat at 5 mg/kg, iv. The conditions noted are these: in vivo.
Data set [14] in a line: in vivo. The conditions noted are these: Sprague-Dawley, rat, po, 10 mg/kg.
Data set [15] in a line: Half life in Sprague-Dawley rat at 5 mg/kg, iv. The conditions noted are these: in vivo.
The nature of data set [16]: Clearance in Sprague-Dawley rat at 5 mg/kg, iv. The conditions noted are these: in vivo.
The nature of data set [17]: in vivo. The conditions noted are these: Sprague-Dawley, rat, plasma, po, 10 mg/kg. This is another data set of the same source.

The Kp is tissue or fluid exposure divided by exposure in the circulation. As for `COc1ccc2cccc(CCNC(C)=O)c2c1` [AGOMELATINE], the concentration at 2 h amounted to 3200 ng/g in data set [1] and 1230 ng/mL in [7]. Also, the Kp at 6 h in data set [2] was 2.73. For the same compound, the concentration at […] in data set [3] came out at 4200 ng/mL; in data set [4], 13800 ng/g. Also, the concentration at 6 h in data set [5] is 450 ng/mL; in data set [6], 1210 ng/g. Further, the Kp at […] in [8] stood at 3.19. The partition ratio (Kp) at 2 h in data set [9] amounted to 2.73.

In general, Cmax refers to the highest concentration seen after dosing. The half-life is how long it takes for the measured level to halve. A higher half-life goes with slow decline. The Vd is a proportionality between amount in the body and measured concentration, not a real space. By bioavailability is commonly meant dose-corrected exposure relative to a reference, in per cent. The term clearance denotes the rate of elimination divided by the concentration. A lower clearance goes with a low capacity for elimination. For orientation: AUC(0-inf) means the area under the concentration-time curve extrapolated to infinity. A higher AUC(0-inf) goes with more exposure. In the data set “in vivo [10]”, `COc1ccc2[nH]cc(CCNC(C)=O)c2c1` [MELATONIN] showed a Cmax at 24 h of 2790 ng/mL. In data set [11], this compound had a concentration at 0 h of 935 ng/mL. The half-life was 31.8 min in data set [12] and 19.8 min in data set [15]. This compound yielded a Vd in data set [13] of 1.05 L/kg. The compound further returned a bioavailability in “in vivo [14]” of 53.5%. The compound further displayed a clearance in [16] of 35.2 mL/min/kg. The compound further registered an AUC(0-inf) in the data set “in vivo [17]” of 2490 ng·h/mL.

As to `CCC(=O)NCC[C@@H]1CCc2ccc3c(c21)CCO3` [RAMELTEON], the figures for the concentration at 2 h in data set [1] and in data set [7] were 3030 ng/g and 3450 ng/mL, respectively. Further, the concentration ratio (Kp) at 6 h in data set [2] was 1.02. Also, the results for the concentration at […] in data set [3] and in [4] were 3160 ng/mL and 2850 ng/g, respectively. The concentration at 6 h amounted to 1150 ng/mL in data set [5] and 1190 ng/g in data set [6]. In data set [8], the partition ratio (Kp) at […] is 0.91. The Kp at 2 h in data set [9] worked out at 0.86.
